Measurements: ChEMBL document CHEMBL1133938, “Parallel solid-phase synthesis of zatebradine analogues as potential I(f) channel blockers” (2001)

Species on record: Cavia porcellus
Assay: Inhibitory activity to reduce the spontaneous beating of isolated guinea-pig atria in a concentration-dependent manner at the dose of 3 uM
Format: functional

| Structure (SMILES) | Max inhibition | inhibition at 3 µM |
| --- | --- | --- |
| COc1ccc(CCN(CCCN2C=Cc3cc(OC)c(OC)cc3CC2=O)Cc2ccccc2)cc1OC | 59% | 25% |
| C=CCN(CCCc1ccccc1)CCCN1C=Cc2cc(OC)c(OC)cc2CC1=O | 100% | 44% |
| C=CCN(CCCN1C=Cc2cc(OC)c(OC)cc2CC1=O)CCOc1ccccc1 | 100% | 42% |
| C=CCN(CCCN1C=Cc2cc(OC)c(OC)cc2CC1=O)CCc1ccccc1 | 71% | 53% |
| C=CCN(CCCN1C=Cc2cc(OC)c(OC)cc2CC1=O)CCc1ccc(OC)cc1 | 81% | 80% |
| COc1cc2c(cc1OC)CC(=O)N(CCCNCCCCc1ccccc1)C=C2 | 84% | 43% |
| C=CCN(CCCN1C=Cc2cc(OC)c(OC)cc2CC1=O)CCc1ccc(OC)c(OC)c1 | 69% | 34% |
| COc1ccc(CCNCCCN2C=Cc3cc(OC)c(OC)cc3CC2=O)cc1 | 69% | 60% |
| COc1cc2c(cc1OC)CC(=O)N(CCCNCCCc1ccccc1)C=C2 | 60% | 31% |
| COc1cc2c(cc1OC)CC(=O)N(CCCNCCc1ccc(Cl)cc1)C=C2 | 68% | 60% |
| COc1cc2c(cc1OC)CC(=O)N(CCCNCCc1ccccc1)C=C2 | 81% | 60% |
| C=CCN(CCCN1C=Cc2cc(OC)c(OC)cc2CC1=O)CCc1ccc(Cl)cc1 | 60% | 31% |
| COc1ccc(CCNCCCN2C=Cc3cc(OC)c(OC)cc3CC2=O)cc1OC | 77% | 59% |
| COc1ccc(CCNCCCN2CCc3cc(OC)c(OC)cc3CC2=O)cc1OC | 68% | 40% |
| C=CCN(CCCCc1ccccc1)CCCN1C=Cc2cc(OC)c(OC)cc2CC1=O | 91% | 54% |
| COc1cc2c(cc1OC)CC(=O)N(CCCNCCOc1ccccc1)C=C2 | 80% | 53% |
